Key:
[1] = target: Peptidyl-prolyl cis-trans isomerase A (Homo sapiens, UniProt P62937); assay: Binding affinity to cyclophilin A by ELISA
[2] = target: Peptidyl-prolyl cis-trans isomerase B (Homo sapiens, UniProt P23284); assay: Binding affinity to cyclophilin B by ELISA
Jurkat = assay: Immunosuppressive activity against human Jurkat cells assessed as inhibition of phytohemagglutinin-M/phorbol myristate acetate-induced IL2 production; assay type: cell-based
Hepatitis C virus = assay: Antiviral activity against HCV after 72 hrs by stable luciferase reporter gene assay; assay type: functional, organism-based, Hepacivirus hominis
[3] = Cytotoxicity against human HuH7 cells assessed as release of lactate dehydrogenase; assay type: cell-based, Huh-7; details: for IC50: Homo sapiens, Huh-7; for IC90: human, HuH7 cells

Chain of Peptidyl-prolyl cis-trans isomerase B (P23284 whole entry): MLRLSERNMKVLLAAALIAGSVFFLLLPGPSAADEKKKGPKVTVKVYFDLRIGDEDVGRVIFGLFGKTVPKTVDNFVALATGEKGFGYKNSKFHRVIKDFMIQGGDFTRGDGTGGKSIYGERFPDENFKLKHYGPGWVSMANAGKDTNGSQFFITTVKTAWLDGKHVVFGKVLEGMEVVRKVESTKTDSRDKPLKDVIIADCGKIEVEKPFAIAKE
Chain of Peptidyl-prolyl cis-trans isomerase A (P62937 whole entry): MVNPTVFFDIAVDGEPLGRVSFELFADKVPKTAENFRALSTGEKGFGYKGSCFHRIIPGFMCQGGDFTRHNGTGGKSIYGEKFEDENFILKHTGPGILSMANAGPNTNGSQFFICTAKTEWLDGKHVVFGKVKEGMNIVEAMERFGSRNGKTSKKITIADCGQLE

Row | Structure (SMILES) | IC50 [1] [nM] | IC50 [2] [nM] | EC50 (Jurkat) [nM] | EC50 (Hepatitis C virus) [nM] | EC90 (Hepatitis C virus) [nM] | IC50 [3] [nM] | IC90 [3] [nM]
1 | C/C=C/C[C@@H](C)[C@@H](O)[C@H]1C(=O)N[C@@H](CC)C(=O)N(C)CC(=O)N(C)[C@@H](CC(C)C)C(=O)N[C@@H](C(C)C)C(=O)N(C)[C@@H](CC(C)C)C(=O)N[C@@H](C)C(=O)N[C@H](CCCCN(C)C)C(=O)N(C)[C@@H](CC(C)C)C(=O)N(C)[C@@H](CC(C)C)C(=O)N(C)[C@@H](C(C)C)C(=O)N1C | 14 | 97.1 | 332 | 140 | 300 | 2810 | > 10000
2 | C/C=C/C[C@@H](C)[C@@H](O)[C@H]1C(=O)N[C@@H](CC)C(=O)N(C)CC(=O)N(C)[C@@H](CC(C)C)C(=O)N[C@@H](C(C)C)C(=O)N(C)[C@@H](CC(C)C)C(=O)N[C@@H](C)C(=O)N[C@H](CCCCNC(=O)C(C)(C)C)C(=O)N(C)[C@@H](CC(C)C)C(=O)N(C)[C@@H](CC(C)C)C(=O)N(C)[C@@H](C(C)C)C(=O)N1C | 22.8 | 20.6 | 121 | 160 | 300 | 2560 | > 10000
3 | C/C=C/C[C@@H](C)[C@@H](O)[C@H]1C(=O)N[C@@H](CC)C(=O)N(C)CC(=O)N(C)[C@@H](CC(C)C)C(=O)N[C@@H](C(C)C)C(=O)N(C)[C@@H](CC(C)C)C(=O)N[C@@H](C)C(=O)N[C@H](CCN(C)C)C(=O)N(C)[C@@H](CC(C)C)C(=O)N(C)[C@@H](CC(C)C)C(=O)N(C)[C@@H](C(C)C)C(=O)N1C | 46 | 59.5 | 24 | 170 | 300 | 3280 | > 10000
4 | C/C=C/C[C@@H](C)[C@@H](O)[C@H]1C(=O)N[C@@H](CC)C(=O)N(C)CC(=O)N(C)[C@@H](CC(C)C)C(=O)N[C@@H](C(C)C)C(=O)N(C)[C@@H](CC(C)C)C(=O)N[C@@H](C)C(=O)N[C@H](CCN(CC)CC)C(=O)N(C)[C@@H](CC(C)C)C(=O)N(C)[C@@H](CC(C)C)C(=O)N(C)[C@@H](C(C)C)C(=O)N1C | 65.2 | 55.9 | 114 | 170 | 350 | 1500 | 8620
5 | C/C=C/C[C@@H](C)[C@@H](O)[C@H]1C(=O)N[C@@H](CC)C(=O)N(C)CC(=O)N(C)[C@@H](CC(C)C)C(=O)N[C@@H](C(C)C)C(=O)N(C)[C@@H](CC(C)C)C(=O)N[C@@H](C)C(=O)N[C@H](CNC(=O)OC(C)(C)C)C(=O)N(C)[C@@H](CC(C)C)C(=O)N(C)[C@@H](CC(C)C)C(=O)N(C)[C@@H](C(C)C)C(=O)N1C | 83.5 | 66.8 | 50 | 200 | 480 | 1720 | > 10000
6 | C/C=C/C[C@@H](C)[C@@H](O)[C@H]1C(=O)N[C@@H](CC)C(=O)N(C)CC(=O)N(C)[C@@H](CC(C)C)C(=O)N[C@@H](C(C)C)C(=O)N(C)[C@@H](CC(C)C)C(=O)N[C@@H](C)C(=O)N[C@H](CCN)C(=O)N(C)[C@@H](CC(C)C)C(=O)N(C)[C@@H](CC(C)C)C(=O)N(C)[C@@H](C(C)C)C(=O)N1C | 218 | 151 | 90 | 660 | 2350 | 5300 | > 10000
7 | C/C=C/C[C@@H](C)[C@@H](O)[C@H]1C(=O)N[C@@H](CC)C(=O)N(C)CC(=O)N(C)[C@@H](CC(C)C)C(=O)N[C@@H](C(C)C)C(=O)N(C)[C@@H](CC(C)C)C(=O)N[C@@H](C)C(=O)N[C@H](CN(C)C)C(=O)N(C)[C@@H](CC(C)C)C(=O)N(C)[C@@H](CC(C)C)C(=O)N(C)[C@@H](C(C)C)C(=O)N1C | 22.9 | 25.2 | 20 | 190 | 670 | 2050 | > 10000
8 | C/C=C/C[C@@H](C)[C@@H](O)[C@H]1C(=O)N[C@@H](CC)C(=O)N(C)CC(=O)N(C)[C@@H](CC(C)C)C(=O)N[C@@H](C(C)C)C(=O)N(C)[C@@H](CC(C)C)C(=O)N[C@@H](C)C(=O)N[C@H](CCC#N)C(=O)N(C)[C@@H](CC(C)C)C(=O)N(C)[C@@H](CC(C)C)C(=O)N(C)[C@@H](C(C)C)C(=O)N1C | 23 | 24.2 | 12 | 100 | 270 | 2370 | > 10000

The remaining compounds from weak to strong by EC50 (Jurkat), led by results:

Row | IC50 [1] [nM] | IC50 [2] [nM] | EC50 (Jurkat) [nM] | EC50 (Hepatitis C virus) [nM] | EC90 (Hepatitis C virus) [nM] | Structure (SMILES) | IC50 [3] [nM] | IC90 [3] [nM]
9 | – | 10.3 | 4210 | 50 | 240 | C/C=C/C[C@@H](C)[C@@H](O)[C@H]1C(=O)N[C@@H](CC)C(=O)N(C)[C@H](SCCN(C)C)C(=O)N(C)[C@@H](CC(C)(C)O)C(=O)N[C@@H](C(C)C)C(=O)N(C)[C@@H](CC(C)C)C(=O)N[C@@H](C)C(=O)N[C@H](C)C(=O)N(C)[C@@H](CC(C)C)C(=O)N(C)[C@@H](CC(C)C)C(=O)N(C)[C@@H](C(C)C)C(=O)N1C [SCY 635] | > 10000 | > 10000
10 | 26.6 | 19.8 | 2170 | 180 | 530 | C/C=C/C[C@@H](C)[C@@H](O)[C@H]1C(=O)N[C@@H](CC)C(=O)N(C)CC(=O)N(C)[C@@H](CC(C)C)C(=O)N[C@@H](C(C)C)C(=O)N(C)[C@@H](CC(C)C)C(=O)N[C@@H](C)C(=O)N[C@H](CCCCN(CC)CC)C(=O)N(C)[C@@H](CC(C)C)C(=O)N(C)[C@@H](CC(C)C)C(=O)N(C)[C@@H](C(C)C)C(=O)N1C | 2240 | 7900
11 | 21.4 | 17.2 | 134 | 150 | 370 | C/C=C/C[C@@H](C)[C@@H](O)[C@H]1C(=O)N[C@@H](CC)C(=O)N(C)CC(=O)N(C)[C@@H](CC(C)C)C(=O)N[C@@H](C(C)C)C(=O)N(C)[C@@H](CC(C)C)C(=O)N[C@@H](C)C(=O)N[C@H](CCCN(CC)CC)C(=O)N(C)[C@@H](CC(C)C)C(=O)N(C)[C@@H](CC(C)C)C(=O)N(C)[C@@H](C(C)C)C(=O)N1C | 1820 | 8910
12 | 662 | 1580 | 111 | 1890 | 6740 | C/C=C/C[C@@H](C)[C@@H](O)[C@H]1C(=O)N[C@@H](CC)C(=O)N(C)CC(=O)N(C)[C@@H](CC(C)C)C(=O)N[C@@H](C(C)C)C(=O)N(C)[C@@H](CC(C)C)C(=O)N[C@@H](C)C(=O)N[C@H](CCCN)C(=O)N(C)[C@@H](CC(C)C)C(=O)N(C)[C@@H](CC(C)C)C(=O)N(C)[C@@H](C(C)C)C(=O)N1C | > 10000 | > 10000
13 | 140 | 158 | 55 | 380 | 950 | C/C=C/C[C@@H](C)[C@@H](O)[C@H]1C(=O)N[C@@H](CC)C(=O)N(C)CC(=O)N(C)[C@@H](CC(C)C)C(=O)N[C@@H](C(C)C)C(=O)N(C)[C@@H](CC(C)C)C(=O)N[C@@H](C)C(=O)N[C@H](CN(CC)CC)C(=O)N(C)[C@@H](CC(C)C)C(=O)N(C)[C@@H](CC(C)C)C(=O)N(C)[C@@H](C(C)C)C(=O)N1C | 2680 | > 10000
14 | 35.2 | 28.9 | 39 | 140 | 380 | C/C=C/C[C@@H](C)[C@@H](O)[C@H]1C(=O)N[C@@H](CC)C(=O)N(C)CC(=O)N(C)[C@@H](CC(C)C)C(=O)N[C@@H](C(C)C)C(=O)N(C)[C@@H](CC(C)C)C(=O)N[C@@H](C)C(=O)N[C@H](CCCN(C)C)C(=O)N(C)[C@@H](CC(C)C)C(=O)N(C)[C@@H](CC(C)C)C(=O)N(C)[C@@H](C(C)C)C(=O)N1C | 2150 | 8730
15 | 31.2 | 26.1 | 22 | 140 | 360 | C/C=C/C[C@@H](C)[C@@H](O)[C@H]1C(=O)N[C@@H](CC)C(=O)N(C)CC(=O)N(C)[C@@H](CC(C)C)C(=O)N[C@@H](C(C)C)C(=O)N(C)[C@@H](CC(C)C)C(=O)N[C@@H](C)C(=O)N[C@H](CCNC(=O)C(C)(C)C)C(=O)N(C)[C@@H](CC(C)C)C(=O)N(C)[C@@H](CC(C)C)C(=O)N(C)[C@@H](C(C)C)C(=O)N1C | 2020 | > 10000
16 | 26.7 | 30.5 | 21 | 120 | 310 | C/C=C/C[C@@H](C)[C@@H](O)[C@H]1C(=O)N[C@@H](CC)C(=O)N(C)CC(=O)N(C)[C@@H](CC(C)C)C(=O)N[C@@H](C(C)C)C(=O)N(C)[C@@H](CC(C)C)C(=O)N[C@@H](C)C(=O)N[C@H](CCCNC(=O)C(C)(C)C)C(=O)N(C)[C@@H](CC(C)C)C(=O)N(C)[C@@H](CC(C)C)C(=O)N(C)[C@@H](C(C)C)C(=O)N1C | 2070 | > 10000
17 | 103 | 79.7 | 13 | 300 | 820 | C/C=C/C[C@@H](C)[C@@H](O)[C@H]1C(=O)N[C@@H](CC)C(=O)N(C)CC(=O)N(C)[C@@H](CC(C)C)C(=O)N[C@@H](C(C)C)C(=O)N(C)[C@@H](CC(C)C)C(=O)N[C@@H](C)C(=O)N[C@H](CN)C(=O)N(C)[C@@H](CC(C)C)C(=O)N(C)[C@@H](CC(C)C)C(=O)N(C)[C@@H](C(C)C)C(=O)N1C | 4610 | > 10000
18 | – | – | 6.7 | 370 | 910 | C/C=C/C[C@@H](C)[C@@H](O)[C@H]1C(=O)N[C@@H](CC)C(=O)N(C)CC(=O)N(C)[C@@H](CC(C)C)C(=O)N[C@@H](C(C)C)C(=O)N(C)[C@@H](CC(C)C)C(=O)N[C@@H](C)C(=O)N[C@H](C)C(=O)N(C)[C@@H](CC(C)C)C(=O)N(C)[C@@H](CC(C)C)C(=O)N(C)[C@@H](C(C)C)C(=O)N1C [CYCLOSPORINE] | – | –
19 | 9.12 | 9.45 | 5.1 | 40 | 140 | C/C=C/C[C@@H](C)[C@@H](O)[C@H]1C(=O)N[C@@H](CC)C(=O)N(C)CC(=O)N(C)[C@@H](CC(C)C)C(=O)N[C@@H](C(C)C)C(=O)N(C)[C@@H](CC(C)C)C(=O)N[C@@H](C)C(=O)N[C@H](CC#N)C(=O)N(C)[C@@H](CC(C)C)C(=O)N(C)[C@@H](CC(C)C)C(=O)N(C)[C@@H](C(C)C)C(=O)N1C | 2820 | > 10000
